Read-outs that look alike come from different tables or passages of the source. Starred links: 1 amine or outer side, 2 acyl side, 3 side chain; linkers in the order of their positions; H or OH if unused. Positions of bridges follow the written chain, without caps; N, C: chain ends. Non-standard residues stand in square brackets, D forms with d. Residues, ends and D or L forms follow the SMILES beside them. ξ: configuration not given here. *: point of attachment. NMeF = CN[C@@H](Cc1ccccc1)C(=O)O; NMeI = CC[C@H](C)[C@H](NC)C(=O)O; NMeβAla = CN(CCC(=O)[*:2])[*:1]; NMeξIle = CC[C@H](C)C(NC)C(=O)O; NMeL = CN[C@@H](CC(C)C)C(=O)O; NMeV = CN[C@H](C(=O)O)C(C)C; NMeA = CN[C@@H](C)C(=O)O; Piperidide = C1CCN(*)CC1; dNMeA = CN[C@H](C)C(=O)O; ξD = NC(CC(=O)O)C(=O)O; ξL = CC(C)CC(N)C(=O)O; ξT = CC(O)C(N)C(=O)O; Sar = CNCC(=O)O; tBu = CC(C)(C)*
What was measured:
[1] = Metabolic stability in human hepatic microsome; format: in vitro ADME; conditions: human
[2] = PAMPA (parallel artificial membrane permeability assay); format: in vitro ADME; conditions: PAMPA
Procedure, shortened: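 Artificial membrane was 10% (w/v) egg lecithin plus 0.5% (w/v) cholesterol in dodecane on a PVDF filter. A 10 mM DMSO stock was added at 0.5% (v/v) to donor buffer (50 mM MOPSO, pH 6.5, 5.0% glycocholic acid). After 18 h at 37 °C, LC/MS or LC/UV gave donor and acceptor levels for Pe.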

[3] = microsomes, pH 7.4, CL NADPH(+)
[4] = human hepatic microsomes, pH 7.4, human hepatic microsome, NADPH(+), read-out: CL NADPH(+)
[5] = membrane permeation rate (Pe), 50 mM MOPSO buffer pH 6.5 with 5.0% glycocholic acid, 37° C., 18 hours, read-out: iPAMPA Pe

SMILES	microsomal CLint at 1 uM [1, 3] [µL/min/mg]	Papp at 18 hours, 50 µM ([2]; pH 6.5) [×10⁻⁶ cm/s]	microsomal CLint at 1 uM [1, 4] [µL/min/mg]	Papp at 18 hours, 50 µM [2, 5] [×10⁻⁶ cm/s]
CC[C@H](C)[C@H](NC(=O)[C@H](CC(C)C)NC(=O)[C@@H]1CC(=O)N[C@@H](C)C(=O)N[C@@H](CC(C)C)C(=O)N[C@@H](Cc2ccccc2)C(=O)N[C@@H](CC(C)C)C(=O)N[C@@H]([C@@H](C)O)C(=O)N2CCC[C@H]2C(=O)N(C)CC(=O)N[C@@H](Cc2ccccc2)C(=O)N[C@@H](C(C)C)C(=O)N(C)[C@@H](C)C(=O)N1)C(=O)N1CCCCC1 [DP-41] (ALFLTP[Sar]FV[NMeA]DLI-Piperidide; lactam N-11)	72	11	–	–
CC[C@H](C)[C@H](NC(=O)[C@@H]1CC(=O)N[C@@H](C)C(=O)N[C@@H]([C@@H](C)O)C(=O)N[C@@H](CC(C)C)C(=O)N2CCC[C@H]2C(=O)N[C@@H](Cc2ccccc2)C(=O)N(C)[C@@H](Cc2ccccc2)C(=O)N(C)[C@@H](C(C)C)C(=O)N[C@@H](C)C(=O)N(C)[C@@H](CC(C)C)C(=O)N1)C(=O)N1CCCCC1 [DP-44] (ATLPF[NMeF][NMeV]A[NMeL]DI-Piperidide; lactam N-10)	59	20	–	–
CC[C@H](C)[C@H]1C(=O)N[C@@H](C)C(=O)N(C)[C@@H](Cc2ccccc2)C(=O)N[C@@H]([C@@H](C)O)C(=O)N(C)CC(=O)N(C)[C@@H](Cc2ccccc2)C(=O)N(C)[C@@H](CC(C)C)C(=O)N[C@H](C(=O)N2CCCCC2)CC(=O)N(C)CCC(=O)N[C@@H](CC(C)C)C(=O)N(C)[C@@H](CC(C)C)C(=O)N1C [DP-48] ([NMeβAla]L[NMeL][NMeI]A[NMeF]T[Sar][NMeF][NMeL]D-Piperidide; lactam N-11)	32	33	–	–
CC[C@H](C)[C@H]1C(=O)N(C)[C@@H](CC(C)C)C(=O)N[C@H](C(=O)N2CCCCC2)CC(=O)N(C)[C@H](C)C(=O)N(C)[C@@H](CC(C)C)C(=O)N[C@@H](CC(C)C)C(=O)N(C)[C@@H](Cc2ccccc2)C(=O)N[C@@H](COC(C)(C)C)C(=O)N(C)[C@@H](Cc2ccccc2)C(=O)N[C@@H]([C@@H](C)O)C(=O)N(C)[C@@H](C)C(=O)N1C [DP-49] ([dNMeA][NMeL]L[NMeF]S(tBu)[NMeF]T[NMeA][NMeI][NMeL]D-Piperidide; lactam N-11)	51	18	–	–
CC(C)C[C@H]1C(=O)N(C)[C@@H](CC(C)C)C(=O)NC(C(C)O)C(=O)N(C)[C@@H](Cc2ccccc2)C(=O)NCC(=O)N(C)[C@@H](C(C)C)C(=O)N[C@@H](Cc2ccccc2)C(=O)NC(C(=O)N2CCCCC2)CC(=O)N(C)CCC(=O)N[C@@H](COC(C)(C)C)C(=O)N1C (stereo partly drawn) [DP-50] ([NMeβAla]S(tBu)[NMeL][NMeL][ξT][NMeF]G[NMeV]F[ξD]-Piperidide; lactam N-10)	80	35	–	–
CC[C@H](C)[C@@H]1NC(=O)[C@H](C)N(C)C(=O)[C@@H](C)N(C)C(=O)C[C@@H](C(=O)N2CCCCC2)NC(=O)[C@H](CC(C)C)N(C)C(=O)[C@H](C)N(C)C(=O)[C@H](Cc2ccccc2)N(C)C(=O)[C@H]([C@@H](C)O)NC(=O)[C@H](Cc2ccccc2)N(C)C(=O)[C@H](CC(C)C)N(C)C1=O [DP-51] ([dNMeA][NMeA]I[NMeL][NMeF]T[NMeF][NMeA][NMeL]D-Piperidide; lactam N-10)	96	34	–	–
CC(C)C[C@H]1C(=O)NCC(=O)N[C@H](C(=O)N2CCCCC2)CC(=O)N[C@H](C)C(=O)N[C@@H]([C@@H](C)O)C(=O)N(C)[C@@H](C)C(=O)N(C)[C@@H](Cc2ccccc2)C(=O)N[C@@H](COC(C)(C)C)C(=O)N(C)[C@@H](Cc2ccccc2)C(=O)N1C [DP-52] ([dA]T[NMeA][NMeF]S(tBu)[NMeF][NMeL]GD-Piperidide; lactam N-9)	136	23	–	–
CC[C@H](C)[C@H]1C(=O)N[C@H](C(=O)N2CCCCC2)CC(=O)N[C@H](C)C(=O)N[C@@H]([C@@H](C)O)C(=O)N(C)[C@@H](Cc2ccccc2)C(=O)N[C@@H](CC(C)C)C(=O)N(C)[C@@H](C)C(=O)N[C@@H](C(C)C)C(=O)N[C@@H](Cc2ccccc2)C(=O)N(C)[C@@H](CC(C)C)C(=O)N[C@@H](CC(C)C)C(=O)NCC(=O)N1C [DP-53] ([dA]T[NMeF]L[NMeA]VF[NMeL]LG[NMeI]D-Piperidide; lactam N-12)	60	30	–	–
CC[C@H](C)[C@H]1C(=O)N(C)[C@@H](Cc2ccccc2)C(=O)NCC(=O)N[C@@H]([C@@H](C)O)C(=O)N[C@@H](Cc2ccccc2)C(=O)N(C)[C@@H](CC(C)C)C(=O)N2CCC[C@H]2C(=O)N[C@H](C(=O)N2CCCCC2)CC(=O)N[C@H](C)C(=O)N[C@@H](CC(C)C)C(=O)N(C)[C@@H](C)C(=O)N[C@@H](CC(C)C)C(=O)N1C [DP-54] ([dA]L[NMeA]L[NMeI][NMeF]GTF[NMeL]PD-Piperidide; lactam N-12)	13	15	–	–
CC[C@H](C)[C@H]1C(=O)N[C@@H](C)C(=O)N[C@H](C(=O)N2CCCCC2)CC(=O)N[C@H](C(C)C)C(=O)N[C@@H](Cc2ccccc2)C(=O)N(C)CC(=O)N[C@@H](CC(C)C)C(=O)N[C@@H](Cc2ccccc2)C(=O)N2CCC[C@H]2C(=O)N[C@@H]([C@@H](C)O)C(=O)N[C@@H](COC(C)(C)C)C(=O)N(C)[C@@H](CC(C)C)C(=O)N1C [DP-55] ([dV]F[Sar]LFPTS(tBu)[NMeL][NMeI]AD-Piperidide; lactam N-12)	79	21	–	–
CC[C@H](C)[C@H]1C(=O)N[C@H](C(=O)N2CCCCC2)CC(=O)N[C@H](C(C)C)C(=O)N[C@@H]([C@@H](C)O)C(=O)N(C)CC(=O)N[C@@H](CC(C)C)C(=O)N2CCC[C@H]2C(=O)N(C)[C@@H](C(C)C)C(=O)N[C@@H](Cc2ccccc2)C(=O)N(C)[C@@H](Cc2ccccc2)C(=O)N(C)[C@@H](CC(C)C)C(=O)N[C@@H](C)C(=O)N1C [DP-56] ([dV]T[Sar]LP[NMeV]F[NMeF][NMeL]A[NMeI]D-Piperidide; lactam N-12)	43	30	–	–
CC[C@H](C)[C@H]1C(=O)N[C@@H](CC(C)C)C(=O)N2CCC[C@H]2C(=O)N[C@@H]([C@@H](C)O)C(=O)N(C)[C@@H](C)C(=O)N[C@@H](Cc2ccccc2)C(=O)N[C@H](C(=O)N2CCCCC2)CC(=O)N(C)[C@@H](C)C(=O)N[C@@H](Cc2ccccc2)C(=O)N(C)[C@@H](CC(C)C)C(=O)N[C@@H](COC(C)(C)C)C(=O)NCC(=O)N1C [DP-57] ([NMeA]F[NMeL]S(tBu)G[NMeI]LPT[NMeA]FD-Piperidide; lactam N-12)	23	26	–	–
CC[C@H](C)[C@H]1C(=O)N[C@@H](C)C(=O)N[C@H](C(=O)N2CCCCC2)CC(=O)N(C)[C@@H](C)C(=O)N[C@@H]([C@@H](C)O)C(=O)N(C)[C@@H](Cc2ccccc2)C(=O)N[C@@H](CC(C)C)C(=O)N2CCC[C@H]2C(=O)N(C)[C@@H](C(C)C)C(=O)N[C@@H](Cc2ccccc2)C(=O)N(C)CC(=O)N(C)[C@@H](CC(C)C)C(=O)N1C [DP-58] ([NMeA]T[NMeF]LP[NMeV]F[Sar][NMeL][NMeI]AD-Piperidide; lactam N-12)	–	–	27	20
CC[C@H](C)[C@H]1C(=O)NCC(=O)N(C)[C@@H](Cc2ccccc2)C(=O)N[C@@H]([C@@H](C)O)C(=O)N(C)[C@@H](C)C(=O)N[C@@H](CC(C)C)C(=O)N[C@H](C(=O)N2CCCCC2)CC(=O)N(C)CCC(=O)N(C)[C@@H](C)C(=O)N[C@@H](Cc2ccccc2)C(=O)N[C@@H](C(C)C)C(=O)N(C)[C@@H](CC(C)C)C(=O)N1C [DP-59] ([NMeβAla][NMeA]FV[NMeL][NMeI]G[NMeF]T[NMeA]LD-Piperidide; lactam N-12)	65	21	–	–
CC[C@H](C)C1C(=O)N[C@H](C(=O)N2CCCCC2)CC(=O)N(C)CC(=O)N(C)CC(=O)N[C@@H]([C@@H](C)O)C(=O)N(C)[C@@H](Cc2ccccc2)C(=O)N(C)[C@@H](CC(C)C)C(=O)N[C@@H](COC(C)(C)C)C(=O)N(C)[C@@H](CC(C)C)C(=O)N1C (stereo partly drawn) [DP-60] ([Sar][Sar]T[NMeF][NMeL]S(tBu)[NMeL][NMeξIle]D-Piperidide; lactam N-9)	145	42	–	–
CC[C@H](C)[C@H]1C(=O)N(C)[C@@H](Cc2ccccc2)C(=O)N[C@H](C(=O)N2CCCCC2)CC(=O)N(C)CCC(=O)NC(CC(C)C)C(=O)N(C)[C@@H](Cc2ccccc2)C(=O)N(C)[C@@H](CC(C)C)C(=O)N(C)[C@@H](C(C)C)C(=O)N[C@@H](C)C(=O)N(C)[C@@H](C)C(=O)N[C@@H]([C@@H](C)O)C(=O)N(C)CC(=O)N1C (stereo partly drawn) [DP-61] ([NMeβAla][ξL][NMeF][NMeL][NMeV]A[NMeA]T[Sar][NMeI][NMeF]D-Piperidide; lactam N-12)	47	19	–	–
CC[C@H](C)[C@H]1C(=O)NCC(=O)N[C@H](C(=O)N2CCCCC2)CC(=O)N(C)[C@H](C)C(=O)N[C@@H](Cc2ccccc2)C(=O)N(C)[C@@H](CC(C)C)C(=O)N[C@@H](COC(C)(C)C)C(=O)N[C@@H](Cc2ccccc2)C(=O)N2CCC[C@H]2C(=O)N[C@@H]([C@@H](C)O)C(=O)N[C@@H](CC(C)C)C(=O)N(C)[C@@H](C)C(=O)N1C [DP-62] ([dNMeA]F[NMeL]S(tBu)FPTL[NMeA][NMeI]GD-Piperidide; lactam N-12)	22	33	–	–
CC[C@H](C)[C@H]1C(=O)N(C)[C@@H](C)C(=O)N[C@@H](COC(C)(C)C)C(=O)N(C)[C@@H](CC(C)C)C(=O)N(C)[C@@H](CC(C)C)C(=O)N[C@H](C(=O)N2CCCCC2)CC(=O)N(C)[C@H](C)C(=O)N(C)[C@@H](Cc2ccccc2)C(=O)N[C@@H](C)C(=O)N(C)[C@@H](CC(C)C)C(=O)N[C@@H]([C@@H](C)O)C(=O)N[C@@H](Cc2ccccc2)C(=O)N1C [DP-63] ([dNMeA][NMeF]A[NMeL]TF[NMeI][NMeA]S(tBu)[NMeL][NMeL]D-Piperidide; lactam N-12)	–	–	58	17

From patent US9409952B2, “Peptide-compound cyclization method” (Chugai Seiyaku Kabushiki Kaisha, priority 2011, dated 2016)
